Results published in ChEMBL document CHEMBL1201862, “PubChem BioAssay data set” (2004).
Calls of active or inactive are those of the source.

Assays:
Cytochrome P450 2D6 = Cytochrome P450 2D6 (Homo sapiens, UniProt P10635);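 note: CYP2D6 member of a cytochrome P450 panel assay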
HEK293 [1] = test: inhibition of NOD1-driven NF-kB reporter – cell-based, luminescence, uHTS, primary screen (AID 1578); assay type: functional; conditions: Homo sapiens
HEK293 [2] = test: cells; assay type: functional, cell-based; conditions: Homo sapiens
HEK293 [3] = test: cells; assay type: functional, cell-based; conditions: Homo sapiens; remark: listed apart in the source
HEK293 [4] = test: NOD2 signaling inhibitors in MDP-stimulated cells, cell-based, uHTS, luminescence (AID 2001); assay type: functional; conditions: Homo sapiens
[5] = reduction of Shn3 3'UTR-driven luciferase in osteoblasts – cell-based, Clone20 osteoblasts, firefly luciferase, cherry-picked, dose response (AID 624132); assay type: functional;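 note: firefly luciferase luminescence from reporter carrying the Shn3 3'UTR in osteoblasts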
[6] = loss of viability in HepG2 cells – cell-based, CellTiter-Glo, cherry-picked, cytotoxicity control for Shn3 inhibitor project, dose response (AID 624134); assay type: functional
[7] = non-specific 3'UTR reporter inhibition in Clone20-Shn3RL – cell-based, Renilla luciferase, cherry-picked, counter-screen for Shn3 inhibitor project, dose response (AID 624133); assay type: functional
HeLa = test: ATP-based viability loss in HeLa cells – cell-based, CellTiter-Glo luminescence, cherry-pick samples, cytotoxicity control for MITF activator project, dose response (AID 540259); assay type: functional; conditions: Homo sapiens
Vero [8] = test: cells; assay type: functional, cell-based; conditions: Chlorocebus sabaeus
[9] = target: Glucose-6-phosphate 1-dehydrogenase (Homo sapiens, UniProt P11413); test: inhibition of Homo sapiens G6PD, dose series – biochemical, fluorescence, selectivity assay for P. falciparum G6PD inhibitor project, dose response (AID 504792); assay type: functional
Sequence of Glucose-6-phosphate 1-dehydrogenase (P11413 whole entry): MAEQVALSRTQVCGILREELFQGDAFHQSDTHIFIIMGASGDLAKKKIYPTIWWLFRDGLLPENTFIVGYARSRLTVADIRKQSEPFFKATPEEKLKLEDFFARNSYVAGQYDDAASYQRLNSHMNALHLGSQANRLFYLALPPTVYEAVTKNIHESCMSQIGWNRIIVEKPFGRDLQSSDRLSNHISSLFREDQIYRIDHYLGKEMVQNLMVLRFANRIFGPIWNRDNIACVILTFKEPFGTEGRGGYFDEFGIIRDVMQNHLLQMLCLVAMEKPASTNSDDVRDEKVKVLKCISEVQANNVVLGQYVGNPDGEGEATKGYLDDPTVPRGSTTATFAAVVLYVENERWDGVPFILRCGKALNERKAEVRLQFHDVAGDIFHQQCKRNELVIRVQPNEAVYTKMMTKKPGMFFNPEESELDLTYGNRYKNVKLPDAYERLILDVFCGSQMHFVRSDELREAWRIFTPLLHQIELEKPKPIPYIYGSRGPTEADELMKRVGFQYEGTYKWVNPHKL

Genome polyprotein = Genome polyprotein (dengue virus type 2, UniProt P29990); test: flavivirus cap methylation enzyme inhibition – biochemical, confirmation dose response, primary screen (AID 588689); assay type: functional
Sequence of Genome polyprotein (P29990 2492-3391 limits assumed): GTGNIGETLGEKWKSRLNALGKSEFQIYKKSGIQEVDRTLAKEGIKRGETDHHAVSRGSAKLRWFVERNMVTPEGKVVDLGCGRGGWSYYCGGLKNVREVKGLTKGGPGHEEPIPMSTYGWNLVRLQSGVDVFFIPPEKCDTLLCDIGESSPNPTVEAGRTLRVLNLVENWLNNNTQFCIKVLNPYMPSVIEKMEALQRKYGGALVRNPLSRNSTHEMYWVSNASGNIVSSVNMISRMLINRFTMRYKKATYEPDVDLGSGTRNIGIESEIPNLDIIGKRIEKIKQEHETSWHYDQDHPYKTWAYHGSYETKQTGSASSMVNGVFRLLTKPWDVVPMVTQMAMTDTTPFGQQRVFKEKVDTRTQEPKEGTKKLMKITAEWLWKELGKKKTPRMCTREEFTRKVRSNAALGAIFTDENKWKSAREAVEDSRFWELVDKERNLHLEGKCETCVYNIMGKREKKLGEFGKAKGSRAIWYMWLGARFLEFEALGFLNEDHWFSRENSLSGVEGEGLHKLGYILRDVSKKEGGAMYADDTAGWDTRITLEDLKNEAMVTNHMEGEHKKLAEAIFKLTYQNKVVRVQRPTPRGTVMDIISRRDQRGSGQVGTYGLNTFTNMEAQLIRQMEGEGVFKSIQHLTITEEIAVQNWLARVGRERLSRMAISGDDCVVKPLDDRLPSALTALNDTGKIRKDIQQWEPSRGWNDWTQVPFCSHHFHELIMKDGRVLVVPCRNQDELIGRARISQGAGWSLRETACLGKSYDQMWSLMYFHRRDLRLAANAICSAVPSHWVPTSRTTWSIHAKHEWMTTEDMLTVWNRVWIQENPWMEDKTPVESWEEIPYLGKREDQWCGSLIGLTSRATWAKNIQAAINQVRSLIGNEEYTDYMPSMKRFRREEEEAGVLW

[10] = target: DNA (cytosine-5)-methyltransferase 1 (Homo sapiens, UniProt P26358); test: inhibition of DNA methylation by DNMT1 – biochemical, fluorescent molecular beacon, confirmation (AID 602386); assay type: functional
Sequence of DNA (cytosine-5)-methyltransferase 1 (P26358 whole entry): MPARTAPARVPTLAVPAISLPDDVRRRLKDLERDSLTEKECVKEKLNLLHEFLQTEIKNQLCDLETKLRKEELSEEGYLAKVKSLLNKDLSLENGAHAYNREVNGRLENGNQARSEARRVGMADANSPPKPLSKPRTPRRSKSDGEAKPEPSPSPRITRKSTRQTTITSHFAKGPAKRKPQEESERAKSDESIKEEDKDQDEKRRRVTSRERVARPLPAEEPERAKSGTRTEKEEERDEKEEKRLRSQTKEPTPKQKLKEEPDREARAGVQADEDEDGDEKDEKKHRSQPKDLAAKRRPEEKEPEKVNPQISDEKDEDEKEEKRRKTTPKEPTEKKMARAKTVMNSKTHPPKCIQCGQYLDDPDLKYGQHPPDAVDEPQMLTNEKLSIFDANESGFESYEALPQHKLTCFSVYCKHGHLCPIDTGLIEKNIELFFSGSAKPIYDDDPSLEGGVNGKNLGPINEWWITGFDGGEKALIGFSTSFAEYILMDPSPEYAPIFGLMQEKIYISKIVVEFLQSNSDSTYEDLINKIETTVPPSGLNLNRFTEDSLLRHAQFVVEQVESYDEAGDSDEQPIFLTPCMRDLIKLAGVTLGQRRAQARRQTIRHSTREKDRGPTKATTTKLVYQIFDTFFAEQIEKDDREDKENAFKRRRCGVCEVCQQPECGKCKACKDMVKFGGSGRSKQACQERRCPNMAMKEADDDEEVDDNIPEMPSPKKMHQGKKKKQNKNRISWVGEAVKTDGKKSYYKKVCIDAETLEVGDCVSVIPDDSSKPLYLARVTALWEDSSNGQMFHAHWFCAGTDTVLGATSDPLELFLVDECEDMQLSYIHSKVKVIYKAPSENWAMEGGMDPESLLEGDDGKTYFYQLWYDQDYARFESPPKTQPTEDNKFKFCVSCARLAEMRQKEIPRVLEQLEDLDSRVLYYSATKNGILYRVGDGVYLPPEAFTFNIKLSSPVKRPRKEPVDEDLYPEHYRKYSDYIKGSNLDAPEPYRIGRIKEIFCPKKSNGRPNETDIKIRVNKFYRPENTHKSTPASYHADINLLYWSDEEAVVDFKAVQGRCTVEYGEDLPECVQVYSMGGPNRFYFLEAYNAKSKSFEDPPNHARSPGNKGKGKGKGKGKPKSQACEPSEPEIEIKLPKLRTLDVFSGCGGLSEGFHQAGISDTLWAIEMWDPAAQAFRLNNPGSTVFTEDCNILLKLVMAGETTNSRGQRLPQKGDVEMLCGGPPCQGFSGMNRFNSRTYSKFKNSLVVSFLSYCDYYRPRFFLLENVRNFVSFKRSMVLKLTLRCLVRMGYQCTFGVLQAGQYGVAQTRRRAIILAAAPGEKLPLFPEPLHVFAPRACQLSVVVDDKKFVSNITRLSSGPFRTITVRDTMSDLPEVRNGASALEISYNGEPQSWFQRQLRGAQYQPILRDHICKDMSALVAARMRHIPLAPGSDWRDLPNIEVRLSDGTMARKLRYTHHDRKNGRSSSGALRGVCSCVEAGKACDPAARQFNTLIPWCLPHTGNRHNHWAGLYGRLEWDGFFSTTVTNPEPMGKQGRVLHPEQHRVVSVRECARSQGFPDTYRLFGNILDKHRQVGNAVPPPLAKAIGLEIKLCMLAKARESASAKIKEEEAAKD

[11] = viability loss in HeLa cells – cytotoxicity control for MgcRacGAP inhibitor project, dose response (AID 624300); assay type: functional
[12] = target: T1, Rac GTPase-activating protein 1 (Homo sapiens, UniProt Q9H0H5); test: blockers of MgcRacGAP-driven Rac1 GTP hydrolysis – biochemical, ADP Hunter fluorescence, primary and confirmatory, confirmation (AID 624330); assay type: functional
T1 sequence (Q9H0H5 whole entry): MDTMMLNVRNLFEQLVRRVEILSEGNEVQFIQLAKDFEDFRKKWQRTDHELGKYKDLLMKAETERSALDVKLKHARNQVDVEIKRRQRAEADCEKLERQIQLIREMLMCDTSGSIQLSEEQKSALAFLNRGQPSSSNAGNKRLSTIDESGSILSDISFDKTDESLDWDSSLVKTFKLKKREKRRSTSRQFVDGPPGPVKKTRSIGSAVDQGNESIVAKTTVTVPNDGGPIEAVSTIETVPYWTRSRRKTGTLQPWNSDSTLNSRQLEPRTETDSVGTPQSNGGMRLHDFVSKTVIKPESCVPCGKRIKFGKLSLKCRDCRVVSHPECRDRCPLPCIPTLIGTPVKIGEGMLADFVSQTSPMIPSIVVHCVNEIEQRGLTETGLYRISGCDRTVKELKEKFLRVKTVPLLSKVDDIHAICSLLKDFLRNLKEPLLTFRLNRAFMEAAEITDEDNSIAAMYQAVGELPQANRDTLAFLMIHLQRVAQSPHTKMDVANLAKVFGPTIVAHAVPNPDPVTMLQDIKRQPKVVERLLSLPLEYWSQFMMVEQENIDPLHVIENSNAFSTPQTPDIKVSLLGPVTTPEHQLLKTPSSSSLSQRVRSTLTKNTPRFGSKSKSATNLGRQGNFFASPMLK

[13] = target: T2, Histone-lysine N-methyltransferase NSD2 (Homo sapiens, UniProt O96028); assay type: biochemical
T2 sequence (O96028 whole entry): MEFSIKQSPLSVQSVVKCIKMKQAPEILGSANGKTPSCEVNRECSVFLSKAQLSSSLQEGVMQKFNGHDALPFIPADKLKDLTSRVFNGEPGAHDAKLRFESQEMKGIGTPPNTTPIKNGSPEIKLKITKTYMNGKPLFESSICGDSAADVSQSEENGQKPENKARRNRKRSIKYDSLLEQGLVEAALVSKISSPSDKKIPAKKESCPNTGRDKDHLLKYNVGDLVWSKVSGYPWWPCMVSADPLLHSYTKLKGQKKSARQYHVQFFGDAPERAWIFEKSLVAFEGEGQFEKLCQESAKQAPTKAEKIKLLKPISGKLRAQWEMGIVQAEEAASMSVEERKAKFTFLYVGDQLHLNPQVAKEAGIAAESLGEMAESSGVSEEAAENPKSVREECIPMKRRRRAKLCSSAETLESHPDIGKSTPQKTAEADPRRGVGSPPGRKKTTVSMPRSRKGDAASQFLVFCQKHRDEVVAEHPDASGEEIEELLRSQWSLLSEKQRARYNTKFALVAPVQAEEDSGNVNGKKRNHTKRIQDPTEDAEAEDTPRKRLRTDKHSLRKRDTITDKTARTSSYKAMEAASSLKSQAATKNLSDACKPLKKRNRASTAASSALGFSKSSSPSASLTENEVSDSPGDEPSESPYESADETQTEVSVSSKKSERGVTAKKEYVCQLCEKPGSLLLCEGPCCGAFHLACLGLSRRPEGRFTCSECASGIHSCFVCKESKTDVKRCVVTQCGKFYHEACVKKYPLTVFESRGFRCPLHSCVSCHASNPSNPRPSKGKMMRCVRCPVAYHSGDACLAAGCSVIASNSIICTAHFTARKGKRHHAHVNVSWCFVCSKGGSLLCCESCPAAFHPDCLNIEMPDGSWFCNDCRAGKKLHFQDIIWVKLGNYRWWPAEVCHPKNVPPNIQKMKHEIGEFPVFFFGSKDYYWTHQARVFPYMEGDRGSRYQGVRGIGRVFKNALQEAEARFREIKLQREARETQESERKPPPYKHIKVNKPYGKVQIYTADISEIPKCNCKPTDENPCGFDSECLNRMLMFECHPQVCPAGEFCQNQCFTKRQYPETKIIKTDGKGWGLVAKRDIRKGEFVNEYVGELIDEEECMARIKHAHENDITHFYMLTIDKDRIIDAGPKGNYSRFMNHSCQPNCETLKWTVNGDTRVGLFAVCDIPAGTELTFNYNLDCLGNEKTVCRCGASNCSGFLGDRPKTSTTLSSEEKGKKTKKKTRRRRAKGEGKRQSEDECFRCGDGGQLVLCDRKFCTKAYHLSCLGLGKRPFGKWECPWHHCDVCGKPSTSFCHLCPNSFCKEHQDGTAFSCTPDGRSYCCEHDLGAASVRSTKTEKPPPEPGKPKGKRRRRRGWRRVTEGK

[14] = test system: Streptococcus sp. 'group A'; test: Streptococcus pyogenes SK(-)GAS viability under kanamycin – luminescence, BacTiterGlo, confirmation, counter-screen for streptokinase expression inhibitor project, dose response (AID 1900); assay type: functional, organism-based
Streptokinase A = target: T3, Streptokinase A (Streptococcus pyogenes serotype M1, UniProt P10520); test: viability-normalized secreted streptokinase activity reduction – plasminogen activation absorbance, OD405, dose response (AID 1914); assay type: functional, Streptococcus pyogenes M1 GAS;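 note: secreted streptokinase activity via plasminogen activation per viability signal from cell pellet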
T3 sequence (P10520 whole entry): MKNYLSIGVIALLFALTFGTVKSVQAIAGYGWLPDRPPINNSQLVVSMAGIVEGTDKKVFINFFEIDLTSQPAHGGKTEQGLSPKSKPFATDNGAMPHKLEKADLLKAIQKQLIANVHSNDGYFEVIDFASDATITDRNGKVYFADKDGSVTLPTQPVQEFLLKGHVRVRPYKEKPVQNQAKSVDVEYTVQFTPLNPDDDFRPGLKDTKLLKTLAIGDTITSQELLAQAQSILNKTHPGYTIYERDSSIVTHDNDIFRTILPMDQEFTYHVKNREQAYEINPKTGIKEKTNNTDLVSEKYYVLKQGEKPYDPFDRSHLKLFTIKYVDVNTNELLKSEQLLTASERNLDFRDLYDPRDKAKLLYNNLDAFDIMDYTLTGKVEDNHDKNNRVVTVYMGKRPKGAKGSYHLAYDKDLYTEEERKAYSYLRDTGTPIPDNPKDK

[15] = target: Induced myeloid leukemia cell differentiation protein Mcl-1 (Homo sapiens, UniProt Q07820); assay type: functional
Sequence of Induced myeloid leukemia cell differentiation protein Mcl-1 (Q07820 whole entry): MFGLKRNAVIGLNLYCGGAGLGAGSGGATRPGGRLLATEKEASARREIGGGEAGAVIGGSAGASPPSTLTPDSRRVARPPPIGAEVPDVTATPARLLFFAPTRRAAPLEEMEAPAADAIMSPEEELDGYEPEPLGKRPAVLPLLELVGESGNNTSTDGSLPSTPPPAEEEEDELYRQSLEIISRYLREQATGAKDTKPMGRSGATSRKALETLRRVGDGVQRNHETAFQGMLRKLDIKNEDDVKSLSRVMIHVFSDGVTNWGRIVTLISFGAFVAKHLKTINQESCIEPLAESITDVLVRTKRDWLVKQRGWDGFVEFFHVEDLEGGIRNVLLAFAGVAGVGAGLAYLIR

Streptococcus = test: GAS UMAA2166 growth inhibition – luminescence, BacTiterGlo, counter-screen for streptokinase expression inhibitor project, dose response (AID 1915); assay type: functional, organism-based;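 note: potency for reduction of bacterial viability or growth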
Vero [16] = test: cells; assay type: functional; conditions: Chlorocebus sabaeus

Sequence of Cytochrome P450 2D6 (P10635 whole entry): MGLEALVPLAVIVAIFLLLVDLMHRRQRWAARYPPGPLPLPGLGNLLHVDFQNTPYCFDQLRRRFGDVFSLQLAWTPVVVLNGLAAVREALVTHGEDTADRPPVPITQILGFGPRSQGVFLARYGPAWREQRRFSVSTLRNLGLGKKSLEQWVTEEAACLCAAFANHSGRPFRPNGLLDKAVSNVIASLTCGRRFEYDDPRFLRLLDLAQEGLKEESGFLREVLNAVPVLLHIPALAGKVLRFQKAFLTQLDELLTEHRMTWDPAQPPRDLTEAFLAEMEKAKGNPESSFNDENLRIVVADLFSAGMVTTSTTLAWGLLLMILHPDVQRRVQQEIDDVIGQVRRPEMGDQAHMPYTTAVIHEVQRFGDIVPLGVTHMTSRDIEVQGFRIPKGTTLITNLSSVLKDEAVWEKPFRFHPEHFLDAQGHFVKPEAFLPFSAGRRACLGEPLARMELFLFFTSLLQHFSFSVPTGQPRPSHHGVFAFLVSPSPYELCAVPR

OCCN(CO)CO
AC50 (Cytochrome P450 2D6): inconclusive

NS(=O)(=O)c1cc2c(cc1Cl)N=C(CCC(=O)O)N=S2(=O)O
AC50 (Cytochrome P450 2D6): inconclusive

Cn1cc(S(=O)(=O)N2CCc3ccccc32)cc1C(=O)NC(C)(C)C
EC50 (HEK293 [1]): 3.38 µM (active) | IC50 (HEK293 [2]): 10.6 µM (active) | IC50 (HEK293 [3]): > 20 µM (inactive) | IC50 (HEK293 [4]): 12.3 µM (inactive) | AC50 [5]: 1.25 µM (active) | AC50 [6]: 3.56 µM (active) | AC50 [7]: 1.37 µM (active)

COC(=O)C1CCCCN1C(=O)c1ccc2oc(Cc3ccccc3)nc2c1 (stereo not drawn)
AC50 (HeLa): 181 µM (active)

Cc1nn2c(-c3ccccc3)ccnc2c1-c1ccccc1
AC50 (HeLa): 34.7 µM (active)

COc1ccc2c(c1OC)C(=O)N(c1ccc(C)cc1)C2
AC50 (HeLa): 82.3 µM (active)

Cc1ccc(C(C)C)cc1OCC(=O)Nc1nnc(C2CC2)s1
IC50 (Vero [8]): > 25 µM (active)

COC1=C(Br)C(=O)c2nc(C)ccc2C1=O
IC50 [9]: 53.7 µM (inactive) | IC50 (Genome polyprotein): 3.77 µM (active) | IC50 [10]: 8.73 µM (active) | CC50 [11]: 100 µM (active) | IC50 [12]: 68.1 µM (active) | AC50 [13]: 1.71 µM (active)

CCn1nc(C)c(NC(=O)/C=C/c2cnn(C)c2C)c1C
AC50 (Cytochrome P450 2D6): inconclusive

O=C(O)c1ccccc1N/N=C/c1cc(Br)cc(Br)c1O
EC50 [14]: 4.5 µM (active) | EC50 (Streptokinase A): 32.4 µM (active) | IC50 [15]: 8.04 µM (active) | EC50 (Streptococcus): 60.6 µM (active) | IC50 (Vero [8]): 18.9 µM (active) | CC50 (Vero [16]): > 25 µM (active) | AC50 (HeLa): 57.4 µM (active)

Cc1ccsc1/C=N\NC(=O)CC(=O)NCc1ccccc1
IC50 [9]: > 80 µM (inactive)
